{"source": "patent US10493035B2", "about": "“Tablets comprising 2-hydroxy-6-((2-(1-isopropyl-1H-pyrazol-5-yl)pyridin-3-yl)methoxy)benzaldehyde” (Global Blood Therapeutics, Inc., priority 2016, dated 2019)", "key": {"[1]": {"assay": "Physicochemical and biopharmaceutical properties of Compound 1 and its crystal forms", "protocol": "Compound 1 is a BCS II compound, where its solubility is the primary biopharmaceutical factor limiting absorption. Compound 1 exists in one form as an ansolvate crystalline form characterized by at least two, three or four X-ray powder diffraction peaks (Cu Kα radiation) selected from 13.37°, 14.37°, 19.95° and 23.92° 2θ (each ±0.2° 2θ) (see, e.g., PCT application Publication No. WO 2015/120133 A1, incorporated herein by reference in its entirety and for all purposes). This form can hereinafter also be referred to as Form II. The physicochemical properties of Compound 1, including its Form II, are not as conducive (compared to other drug substances for formulation) to making a high dosage form of Compound 1. […] The bulk density of Form II of Compound 1 is considered low and its flowability considered poor. Upon milling, the flowability decreases. […] Form II of Compound 1 is also prone to sticking to steel surfaces, such as in processing equipment for tablet manufacture.\nIn addition, another ansolvate crystalline form of Compound 1, referred to as Form N, is known. Form N has an enantiotropic relationship with Form II, with a transition temperature approximately in the range 30-40° C. Thus, under temperatures (e.g. storage) below 40° C., e.g., at 25° C., Compound 1 is more thermodynamically stable as Form II and at temperatures above 40° C., e.g., at 50° C., Compound 1 is more thermodynamically stable as Form N. To design tablets containing Compound 1, the above physicochemical property limitations of Compound 1 and the high dose requirements need to be accommodated while ensuring that the tablets have dissolution properties that lead to a therapeutic effect."}, "[2]": {"assay": "Compression profile of neat Form II API (hydraulic press, 200 mg compacts)", "type": "physicochemical", "settings": "for Tablet Hardness / Tablet Thickness: neat API 200 mg", "protocol": "The compressibility of crystalline Form II of Compound 1 (“API”) was determined by compressing neat unformulated API at 200 mg scale compressed in a hydraulic press using 5/16th inch diameter, standard concave round tooling. The resulting tablets were measured for thickness using a digital caliper gauge, and for tensile strength using a tablet hardness tester. […] Lots 1a and 2 were directly from the API manufacturing process, but from different API suppliers. Lot 1b was prepared by taking Lot 1a and subjecting it to hammer milling to cause reduction of particle size."}, "[3]": {"settings": "compression force 2000 lbf, listed as 1a"}, "[4]": {"settings": "compression force 3000 lbf, listed as 1a"}, "[5]": {"settings": "compression force 4000 lbf, listed as 1a"}, "[6]": {"settings": "compression force 2000 lbf, listed as 1b"}, "[7]": {"settings": "compression force 3000 lbf, listed as 1b"}, "[8]": {"settings": "compression force 4000 lbf, listed as 1b"}, "[9]": {"settings": "compression force 2000 lbf, listed as 2"}, "[10]": {"settings": "compression force 3000 lbf, listed as 2"}, "[11]": {"settings": "compression force 4000 lbf, listed as 2"}}}
{"smiles": "CC(C)n1nccc1-c1ncccc1COc1cccc(O)c1C=O", "note": "[Compound 1, 2-hydroxy-6-((2-(1-isopropyl-1H-pyrazol-5-yl)pyridin-3-yl)methoxy)benzaldehyde]", "values": [{"measurement": "BCS class", "setting": "[1]", "result": "BCS II"}]}
{"smiles": "CC(C)n1nccc1-c1ncccc1COc1cccc(O)c1C=O", "note": "[Form II of Compound 1, 2-hydroxy-6-((2-(1-isopropyl-1H-pyrazol-5-yl)pyridin-3-yl)methoxy)benzaldehyde]", "values": [{"measurement": "Compressibility (in words)", "setting": "[2]; neat API", "result": "relatively incompressible solid"}, {"measurement": "Lipophilicity (in words)", "setting": "[1]", "result": "lipophilic"}, {"measurement": "Water solubility (in words)", "setting": "[1]", "result": "poorly water soluble"}]}
{"smiles": "CC(C)n1nccc1-c1ncccc1COc1cccc(O)c1C=O", "note": "[Form N, 2-hydroxy-6-((2-(1-isopropyl-1H-pyrazol-5-yl)pyridin-3-yl)methoxy)benzaldehyde]", "values": [{"measurement": "Transition temperature of the enantiotropic relationship with Form II", "setting": "[1]", "result": "30-40 °C"}]}
{"smiles": "CC(C)n1nccc1-c1ncccc1COc1cccc(O)c1C=O", "note": "[Lot 1a, 2-hydroxy-6-((2-(1-isopropyl-1H-pyrazol-5-yl)pyridin-3-yl)methoxy)benzaldehyde]", "values": [{"measurement": "Tablet Hardness", "setting": "[2]; [3]", "result": 1.8, "unit": "kp"}, {"measurement": "Tablet Thickness", "setting": "[2]; [3]", "result": 4.50, "unit": "mm"}, {"measurement": "Tablet Hardness", "setting": "[2]; [4]", "result": 1.5, "unit": "kp"}, {"measurement": "Tablet Thickness", "setting": "[2]; [4]", "result": 4.34, "unit": "mm"}, {"measurement": "Tablet Hardness", "setting": "[2]; [5]", "result": 1.0, "unit": "kp"}, {"measurement": "Tablet Thickness", "setting": "[2]; [5]", "result": 4.35, "unit": "mm"}]}
{"smiles": "CC(C)n1nccc1-c1ncccc1COc1cccc(O)c1C=O", "note": "[Lot 1b, 2-hydroxy-6-((2-(1-isopropyl-1H-pyrazol-5-yl)pyridin-3-yl)methoxy)benzaldehyde]", "values": [{"measurement": "Tablet Hardness", "setting": "[2]; [6]", "result": 2.4, "unit": "kp"}, {"measurement": "Tablet Thickness", "setting": "[2]; [6]", "result": 4.55, "unit": "mm"}, {"measurement": "Tablet Hardness", "setting": "[2]; [7]", "result": 1.2, "unit": "kp"}, {"measurement": "Tablet Thickness", "setting": "[2]; [7]", "result": 4.32, "unit": "mm"}, {"measurement": "Tablet Hardness", "setting": "[2]; [8]", "result": 1.5, "unit": "kp"}, {"measurement": "Tablet Thickness", "setting": "[2]; [8]", "result": 4.43, "unit": "mm"}]}
{"smiles": "CC(C)n1nccc1-c1ncccc1COc1cccc(O)c1C=O", "note": "[Lot 2, 2-hydroxy-6-((2-(1-isopropyl-1H-pyrazol-5-yl)pyridin-3-yl)methoxy)benzaldehyde]", "values": [{"measurement": "Tablet Hardness", "setting": "[2]; [9]", "result": 9.0, "unit": "kp"}, {"measurement": "Tablet Thickness", "setting": "[2]; [9]", "result": 4.50, "unit": "mm"}, {"measurement": "Tablet Hardness", "setting": "[2]; [10]", "result": 3.7, "unit": "kp"}, {"measurement": "Tablet Thickness", "setting": "[2]; [10]", "result": 4.27, "unit": "mm"}, {"measurement": "Tablet Hardness", "setting": "[2]; [11]", "result": 3.4, "unit": "kp"}, {"measurement": "Tablet Thickness", "setting": "[2]; [11]", "result": 4.31, "unit": "mm"}]}
